Among the test systems are SR; Malme-3M; TK-10; SNB-19; NCI-H23; ACHN; LOX IMVI; SK-MEL-5; U-251; SK-MEL-28; COLO 205; KM12; OVCAR-3; HCT-116; K562; MDA-N; Hs-578T; MDA-MB-231; MCF7.
Experiment in all cases: NCI anticancer screen, dose series, 48 h

This is an account of results in ChEMBL document CHEMBL1201862, “PubChem BioAssay data set” (2004).

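Five compound concentrations were applied to cells in 96-well plates for 48 hours; endpoints were derived by simple linear interpolation of the resulting dose-response curve. At the GI50, growth is halved.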 Active and inactive are the calls of the source. No stated cut-off is given here; in the data, active = GI50 up to about 1.1 µM and inactive = higher.

`O=C1C(=Cc2cccs2)C(=O)N(CCc2ccccc2)S(=O)(=O)N1CCc1ccccc1`: the GI50 in the experiment on SR is > 50 µM (inactive); in the experiment with Malme-3M, > 50 µM (inactive); with TK-10, > 50 µM (inactive); with SNB-19, > 50 µM (inactive); in the experiment on NCI-H23, > 50 µM (inactive); in the experiment on ACHN it was 22.6 µM (inactive). Besides, the GI50 in the experiment on LOX IMVI was 28.9 µM (inactive); with SK-MEL-5, > 50 µM (inactive); in the experiment on U-251 it was 12.9 µM (inactive); in the experiment with SK-MEL-28, > 50 µM (inactive); with COLO 205 it was > 50 µM (inactive); in the experiment with KM12, > 50 µM (inactive). Besides, the GI50 was > 50 µM (inactive) in the experiment with OVCAR-3, 11.7 µM (inactive) in the experiment on HCT-116 and 32.7 µM (inactive) in the experiment on K562.
`O=c1[nH]nc(-c2ccccc2)n1/N=C/c1c[nH]c2ccccc12`: the GI50 in the experiment on MDA-N was > 100 µM (inactive); in the experiment on Malme-3M, > 100 µM (inactive); with TK-10, 17.6 µM (inactive); with SNB-19 it was > 100 µM (inactive); in the experiment on NCI-H23, > 100 µM (inactive); with Hs-578T, > 100 µM (inactive). The GI50 in the experiment with ACHN was > 100 µM (inactive); in the experiment with LOX IMVI, 58.7 µM (inactive); with SK-MEL-5 it was > 100 µM (inactive); in the experiment on U-251, > 100 µM (inactive); with SK-MEL-28, > 100 µM (inactive); with COLO 205 it was > 100 µM (inactive). Moreover, the GI50 in the experiment on KM12 is 5 µM (inactive); with MDA-MB-231, > 100 µM (inactive); with MCF7, > 100 µM (inactive); in the experiment with OVCAR-3 it was > 100 µM (inactive); with HCT-116, 42.9 µM (inactive); in the experiment with K562, > 100 µM (inactive).
Consider `CC(O)c1nc(C#N)c(N)o1` (centres undefined), for which the GI50 with MDA-N, in the experiment with Malme-3M, in the experiment with TK-10, in the experiment on SNB-19, in the experiment on NCI-H23 and in the experiment with Hs-578T was > 100 µM (inactive) in each case. Besides, the GI50 in the experiment on ACHN, in the experiment with LOX IMVI, in the experiment on SK-MEL-5, with U-251, with SK-MEL-28 and in the experiment on COLO 205 was > 100 µM (inactive) each time. Further, the GI50 in the experiment with KM12, in the experiment on MDA-MB-231, in the experiment with MCF7, in the experiment with OVCAR-3, in the experiment on HCT-116 and with K562 was > 100 µM (inactive) throughout.
Regarding `Cc1[nH]c2ccccc2c1C(=O)/C=C/c1ccccc1O`, the GI50 in the experiment on SR, in the experiment on Malme-3M, with TK-10, in the experiment with SNB-19, in the experiment with NCI-H23 and in the experiment on ACHN was > 100 µM (inactive) throughout. The GI50 in the experiment with LOX IMVI, with SK-MEL-5, with U-251, with SK-MEL-28, with COLO 205 and in the experiment on KM12 was > 100 µM (inactive) throughout. Besides, the GI50 in the experiment with OVCAR-3, in the experiment on HCT-116 and in the experiment on K562 was > 100 µM (inactive) in each case.
For the molecule `OC(C/C(=N\N1CCCCC1)c1cccs1)(C(F)(F)F)C(F)(F)F`, the GI50 with SR, in the experiment with MDA-N, in the experiment with Malme-3M, with TK-10, in the experiment with SNB-19 and with NCI-H23 was > 10 µM (inactive) each time. The GI50 with Hs-578T, with ACHN, in the experiment with LOX IMVI, in the experiment with SK-MEL-5, with U-251 and in the experiment with SK-MEL-28 was > 10 µM (inactive) throughout. Moreover, the GI50 with COLO 205, with KM12, with MDA-MB-231, in the experiment with MCF7, in the experiment with OVCAR-3 and with HCT-116 was > 10 µM (inactive) each time. Further, the GI50 in the experiment on K562 is > 10 µM (inactive).
`C=CCC1(CN(C)C)CC/C(=C\c2ccc(Cl)cc2)C1=O` (centres undefined): the GI50 is 0.0973 µM (active) in the experiment with SR; > 74.5 µM (inactive) in the experiment with Malme-3M; > 100 µM (inactive) in the experiment with TK-10; 77.3 µM (inactive) in the experiment with SNB-19; 47.5 µM (inactive) in the experiment on NCI-H23; 44.8 µM (inactive) in the experiment with ACHN. Moreover, the GI50 in the experiment on LOX IMVI is 23.8 µM (inactive); in the experiment on SK-MEL-5 it was 28.8 µM (inactive); in the experiment on U-251, 38.1 µM (inactive); with SK-MEL-28, > 83.2 µM (inactive); in the experiment with COLO 205 it was 27.2 µM (inactive); in the experiment on KM12, 29.5 µM (inactive). Further, the GI50 was 36.1 µM (inactive) in the experiment with OVCAR-3, 19.9 µM (inactive) in the experiment on HCT-116 and 26.9 µM (inactive) with K562.
For `CN(C)CCNC(=O)c1cccc2cc3ccc4ccccc4c3nc12`, the GI50 in the experiment on SR was 0.0246 µM (active); in the experiment on Malme-3M, 0.268 µM (active); in the experiment with TK-10 it was 0.207 µM (active); in the experiment on SNB-19, 0.0942 µM (active); in the experiment on NCI-H23 it was 0.0851 µM (active); with ACHN, 0.0276 µM (active). The GI50 in the experiment on LOX IMVI was 0.0502 µM (active); in the experiment on SK-MEL-5, 0.137 µM (active); in the experiment with U-251, 0.0755 µM (active); with SK-MEL-28, 0.198 µM (active); in the experiment with COLO 205, 0.0414 µM (active); with KM12, 0.148 µM (active). For the same molecule, the GI50 is 0.215 µM (active) in the experiment with OVCAR-3, 0.0294 µM (active) in the experiment with HCT-116 and 0.0653 µM (active) in the experiment on K562.
Take `COc1cc2c(c3c1c(=O)c1ccccc1n3C)C=C([N+](=O)[O-])C(C)(C)O2`: the GI50 in the experiment on SR was 0.124 µM (active); in the experiment on MDA-N it was 0.114 µM (active); in the experiment with TK-10 it was > 65.2 µM (inactive); with SNB-19 it was 1.69 µM (inactive); in the experiment with NCI-H23, 0.395 µM (active); in the experiment on Hs-578T it was 25.6 µM (inactive). The GI50 with ACHN was 0.0506 µM (active); in the experiment on LOX IMVI, 0.138 µM (active); with SK-MEL-5, 0.0141 µM (active); in the experiment on U-251 it was 26.8 µM (inactive); in the experiment with COLO 205 it was 0.0253 µM (active); in the experiment on KM12 it was > 100 µM (inactive). Further, the GI50 is 1.08 µM (active) with MDA-MB-231; 0.358 µM (active) with MCF7; > 100 µM (inactive) in the experiment with OVCAR-3; 0.239 µM (active) in the experiment on HCT-116; 0.441 µM (active) in the experiment on K562.
With `CC1C/C(=C\c2ccc(OC(=O)C(C)(C)C)cc2)C(=O)/C(=C/c2ccc(OC(=O)C(C)(C)C)cc2)C1` (centres undefined), the GI50 was 22.3 µM (inactive) in the experiment on SR; 30.5 µM (inactive) with MDA-N; > 100 µM (inactive) in the experiment on Malme-3M; > 100 µM (inactive) with TK-10; > 100 µM (inactive) in the experiment with SNB-19; 24 µM (inactive) in the experiment on NCI-H23. Further, the GI50 in the experiment with Hs-578T is 49.3 µM (inactive); with ACHN, 69.3 µM (inactive); with LOX IMVI, 35.6 µM (inactive); in the experiment on SK-MEL-5, 57.3 µM (inactive); in the experiment with U-251, 31 µM (inactive); in the experiment on SK-MEL-28, > 100 µM (inactive). Moreover, the GI50 with COLO 205 was > 100 µM (inactive); in the experiment with KM12, 26.2 µM (inactive); in the experiment with MDA-MB-231, 59.3 µM (inactive); in the experiment with MCF7, 45.5 µM (inactive); in the experiment with OVCAR-3, 68.4 µM (inactive); in the experiment with HCT-116, 61.2 µM (inactive). Besides, in the experiment with K562, the GI50 was 84.7 µM (inactive).
As to `CCn1c(=O)c2nc(SC)sc2n(-c2ccc(C)cc2)c1=O`, the GI50 in the experiment with SR, in the experiment with MDA-N, in the experiment on Malme-3M, with TK-10, in the experiment on SNB-19 and in the experiment on NCI-H23 was > 100 µM (inactive) each time. Further, the GI50 with Hs-578T is 21.3 µM (inactive); with ACHN, > 100 µM (inactive); in the experiment with LOX IMVI, > 100 µM (inactive); with SK-MEL-5 it was > 100 µM (inactive); in the experiment with U-251, > 100 µM (inactive); in the experiment on SK-MEL-28 it was > 100 µM (inactive). Also, the GI50 is > 100 µM (inactive) in the experiment with COLO 205; 88.9 µM (inactive) with KM12; > 100 µM (inactive) in the experiment on MDA-MB-231; > 100 µM (inactive) in the experiment with MCF7; > 100 µM (inactive) in the experiment with OVCAR-3; > 100 µM (inactive) in the experiment with HCT-116. In the experiment with K562, the GI50 is > 100 µM (inactive).
Regarding `C[C@@H]1[C@H](C)N1CC(O)Cn1ccnc1[N+](=O)[O-]` (some centres undefined), the GI50 with SR, with MDA-N, with Malme-3M, in the experiment with TK-10, with SNB-19 and in the experiment on NCI-H23 was > 100 µM (inactive) each time. The GI50 in the experiment with Hs-578T, in the experiment with ACHN, in the experiment on LOX IMVI, in the experiment on SK-MEL-5, with U-251 and in the experiment on SK-MEL-28 was > 100 µM (inactive) throughout. Also, the GI50 with COLO 205, in the experiment on KM12, in the experiment with MDA-MB-231, in the experiment on MCF7, in the experiment with OVCAR-3 and in the experiment with HCT-116 was > 100 µM (inactive) each time. Besides, in the experiment on K562, the GI50 was > 100 µM (inactive).
As to `COc1ccc2c(c1)c(=O)c1c(NCCN(C)C)ccc3nnn2c31`, the GI50 in the experiment with SR is 0.493 µM (active); in the experiment with Malme-3M it was 3.94 µM (inactive); with TK-10, 2.5 µM (inactive); with SNB-19, 3.52 µM (inactive); in the experiment on NCI-H23, 2.68 µM (inactive); in the experiment on ACHN it was 2.4 µM (inactive). Also, the GI50 in the experiment on LOX IMVI was 1.33 µM (inactive); in the experiment with SK-MEL-5, 3.17 µM (inactive); with U-251 it was 3.08 µM (inactive); in the experiment on SK-MEL-28, 5.78 µM (inactive); in the experiment with COLO 205, 1.36 µM (inactive); in the experiment on KM12, 1.11 µM (active). For the same molecule, the GI50 was 4.24 µM (inactive) in the experiment with OVCAR-3, 0.655 µM (active) in the experiment on HCT-116 and 1.6 µM (inactive) in the experiment with K562.
